Experimental data published in patent publication US20070049564A1 (Wyeth, priority 2005, published 2007).
Values after ≈ are worked out from the molar mass of the structure shown. Where two headings read alike, the source gives them in different places.

How the values were obtained:
[1] = test system: S. aureus GC 6466; assay: MIC, broth microdilution; conditions: Staphylococcus aureus, GC6466, S. aureus GC 6466
[2] = test system: E. coli GC 2272; assay: MIC, broth microdilution; conditions: Escherichia coli, GC2272, E. coli GC 2272
[3] = test system: E. coli GC 3226; assay: MIC, broth microdilution; conditions: Escherichia coli, GC3226, E. coli GC 3226
[4] = test system: E. coli GC 2232; assay: MIC, broth microdilution; conditions: Escherichia coli, GC2232, E. coli GC 2232
[5] = test system: c. albicans GC 3066; assay: MIC, broth microdilution
[6] = test system: S. aureus GC 2216; assay: MIC, broth microdilution; conditions: Staphylococcus aureus, GC2216, S. aureus GC 2216
[7] = test system: E. coli GC 2231; assay: MIC, broth microdilution; conditions: Escherichia coli, GC2231, E. coli GC 2231
[8] = test system: S. aureus GC 1079; assay: MIC, broth microdilution; conditions: Staphylococcus aureus, GC1079, S. aureus GC 1079
[9] = test system: S. typhimurium GC 2172; assay: MIC, broth microdilution; conditions: Salmonella enterica, TYPHIMURIUM, S. typhimurium GC 2172
[10] = test system: S. pneumoniae* GC 4465; assay: MIC, broth microdilution; conditions: Streptococcus pneumoniae, S. pneumoniae* GC 4465
[11] = test system: E. faecium GC 2243; assay: MIC, broth microdilution; conditions: Enterococcus faecium, GC2243, E. faecium GC 2243
[12] = test system: S. pyogenes GC 4563; assay: MIC, broth microdilution; conditions: Streptococcus pyogenes, GC4563, S. pyogenes GC 4563
[13] = test system: Staph. aureus Smith; assay: In vivo activity (oral, iv; ED50) against Staph. aureus Smith in mice
Experimental: Representative examples of compounds of Formula I were tested for the oral efficacy using S. aureus Smith in mice.

[14] = test system: S. aureus GC 1131; assay: MIC, broth microdilution; conditions: Staphylococcus aureus, GC1131, S. aureus GC 1131
[15] = test system: E. faecium GC 4556; assay: MIC, broth microdilution; conditions: Enterococcus faecium, GC4556, E. faecium GC 4556
[16] = test system: S. aureus GC 6335; assay: MIC, broth microdilution; conditions: Staphylococcus aureus, GC6335, S. aureus GC 6335
[17] = test system: E. faecalis GC 2267; assay: MIC, broth microdilution; conditions: Enterococcus faecalis, GC2267, E. faecalis GC 2267
[18] = test system: E. coli GC 2234; assay: MIC, broth microdilution; conditions: Escherichia coli, GC2234, E. coli GC 2234
[19] = test system: S. epidermidis GC 4935; assay: MIC, broth microdilution; conditions: Staphylococcus epidermidis, GC4935, S. epidermidis GC 4935
[20] = test system: S. pneumoniae+ GC 4465; assay: MIC, broth microdilution; conditions: Streptococcus pneumoniae, S. pneumoniae+ GC 4465
[21] = c. albicans GC 3066, Water pre-incubation
[22] = Staphylococcus aureus, in Mus musculus, po, read-out: ED50 Staph Smith SOD
[23] = iv, read-out: ED50 Staph Smith SIV

What does the source list for `CCCN(CC(=O)Nc1cc(N(C)C)c2c(c1O)C(=O)C1=C(O)[C@]3(O)C(=O)C(C(N)=O)=C(O)[C@@H](N(C)C)[C@@H]3C[C@@H]1C2)C(=O)OCOC(=O)c1ccc(C)cc1` [Example 5, ({[(2-{[(5aR,6aS,7S,10aS)-9-(aminocarbonyl)-4,7-bis(dimethylamino)-1,8,10a,11-tetrahydroxy-10,12-dioxo-5,5a,6,6a,7,10,10a,12-octahydrotetracen-2-yl]amino}-2-oxoethyl)(propyl)amino]carbonyl}oxy)methyl 4-methylbenzoate]?
MIC ([1]; Mouse Serum pre-incubation): 0.25 µg/mL (≈ 0.327 µM); MIC ([1]; Water pre-incubation): 0.5 µg/mL (≈ 0.655 µM); MIC ([2]; Mouse Serum pre-incubation): 1 µg/mL (≈ 1.31 µM); MIC ([2]; Water pre-incubation): 32 µg/mL (≈ 41.9 µM); MIC ([3]; Mouse Serum pre-incubation): 2 µg/mL (≈ 2.62 µM); MIC ([3]; Water pre-incubation): 32 µg/mL (≈ 41.9 µM); MIC ([4]; Mouse Serum pre-incubation): 2 µg/mL (≈ 2.62 µM); MIC ([4]; Water pre-incubation): 32 µg/mL (≈ 41.9 µM); MIC ([5]; Candida albicans, GC3066): > 64 µg/mL; MIC [5, 21]: >64 UG/ML; MIC ([6]; Mouse Serum pre-incubation): 0.5 µg/mL (≈ 0.655 µM); MIC ([6]; Water pre-incubation): 2 µg/mL (≈ 2.62 µM); MIC ([7]; Mouse Serum pre-incubation): 2 µg/mL (≈ 2.62 µM); MIC ([7]; Water pre-incubation): 64 µg/mL (≈ 83.8 µM); MIC ([8]; Mouse Serum pre-incubation): 2 µg/mL (≈ 2.62 µM); MIC ([8]; Water pre-incubation): 2 µg/mL (≈ 2.62 µM); MIC ([9]; Mouse Serum pre-incubation): 8 µg/mL (≈ 10.5 µM); MIC ([9]; Water pre-incubation): > 64 µg/mL; MIC ([10]; Mouse Serum pre-incubation): < 0.06 µg/mL; MIC ([10]; Water pre-incubation): 0.12 µg/mL (≈ 0.157 µM); MIC ([11]; Mouse Serum pre-incubation): 0.5 µg/mL (≈ 0.655 µM); MIC ([11]; Water pre-incubation): 1 µg/mL (≈ 1.31 µM); MIC ([12]; Mouse Serum pre-incubation): 0.12 µg/mL (≈ 0.157 µM); MIC ([12]; Water pre-incubation): 0.25 µg/mL (≈ 0.327 µM); ED50 ([13]; Staphylococcus aureus, in Mus musculus, iv, read-out: ED50 SIV (Staph aureus Smith)): 0.5 mg/kg; ED50 ([13]; Staphylococcus aureus, in Mus musculus, po, read-out: ED50 SOD (Staph aureus Smith)): 8.51 mg/kg; ED50 [13, 22]: 8.51 mg/kg; ED50 [13, 23]: 0.5 mg/kg; MIC ([14]; Mouse Serum pre-incubation): 0.5 µg/mL (≈ 0.655 µM); MIC ([14]; Water pre-incubation): 1 µg/mL (≈ 1.31 µM); MIC ([15]; Mouse Serum pre-incubation): 1 µg/mL (≈ 1.31 µM); MIC ([15]; Water pre-incubation): 2 µg/mL (≈ 2.62 µM); MIC ([16]; Mouse Serum pre-incubation): 0.5 µg/mL (≈ 0.655 µM); MIC ([16]; Water pre-incubation): 1 µg/mL (≈ 1.31 µM); MIC ([17]; Mouse Serum pre-incubation): 2 µg/mL (≈ 2.62 µM); MIC ([17]; Water pre-incubation): 4 µg/mL (≈ 5.24 µM); MIC ([18]; Mouse Serum pre-incubation): 1 µg/mL (≈ 1.31 µM); MIC ([18]; Water pre-incubation): 32 µg/mL (≈ 41.9 µM); MIC ([19]; Mouse Serum pre-incubation): 1 µg/mL (≈ 1.31 µM); MIC ([19]; Water pre-incubation): 2 µg/mL (≈ 2.62 µM); MIC ([20]; Mouse Serum pre-incubation): 2 µg/mL (≈ 2.62 µM); MIC ([20]; Water pre-incubation): 4 µg/mL (≈ 5.24 µM)

For `CCCN(CC(=O)Nc1cc(N(C)C)c2c(c1O)C(=O)C1=C(O)[C@]3(O)C(=O)C(C(N)=O)=C(O)[C@@H](N(C)C)[C@@H]3C[C@@H]1C2)C(=O)OCOC(=O)c1ccc(OC)cc1` [Example 6, ({[(2-{[(5aR,6aS,7S,10aS)-9-(aminocarbonyl)-4,7-bis(dimethylamino)-1,8,10a,11-tetrahydroxy-10,12-dioxo-5,5a,6,6a,7,10,10a,12-octahydrotetracen-2-yl]amino}-2-oxoethyl)(propyl)amino]carbonyl}oxy)methyl 4-methoxybenzoate], which MIC ([1]; Mouse Serum pre-incubation) is on record?
The MIC was 0.25 µg/mL (≈ 0.321 µM).

What about the MIC ([1]; Water pre-incubation) of the same molecule?
Its MIC is 1 µg/mL (≈ 1.28 µM).

And the MIC ([2]; Mouse Serum pre-incubation)?
The MIC was 1 µg/mL (≈ 1.28 µM).

And the MIC ([2]; Water pre-incubation)?
The MIC was 16 µg/mL (≈ 20.5 µM).

And the MIC ([3]; Mouse Serum pre-incubation)?
The MIC was 2 µg/mL (≈ 2.56 µM).

What about the MIC ([3]; Water pre-incubation) of the same molecule?
The MIC was 16 µg/mL (≈ 20.5 µM).

And the MIC ([4]; Mouse Serum pre-incubation)?
The MIC was 2 µg/mL (≈ 2.56 µM).

What about the MIC ([4]; Water pre-incubation) of the same molecule?
The MIC was 32 µg/mL (≈ 41 µM).

And the MIC ([5]; Candida albicans, GC3066)?
The MIC was over 64 µg/mL.

And the MIC [5, 21]?
Its MIC is over 64 UG/ML.

And the MIC ([6]; Mouse Serum pre-incubation)?
Its MIC is 0.5 µg/mL (≈ 0.641 µM).

What about the MIC ([6]; Water pre-incubation) of the same molecule?
The MIC was 2 µg/mL (≈ 2.56 µM).

What about the MIC ([7]; Mouse Serum pre-incubation) of the same molecule?
The MIC was 2 µg/mL (≈ 2.56 µM).

And the MIC ([7]; Water pre-incubation)?
The MIC was 64 µg/mL (≈ 82.1 µM).

And the MIC ([8]; Mouse Serum pre-incubation)?
The MIC was 2 µg/mL (≈ 2.56 µM).

And the MIC ([8]; Water pre-incubation)?
The MIC was 4 µg/mL (≈ 5.13 µM).

And the MIC ([9]; Mouse Serum pre-incubation)?
The MIC was 8 µg/mL (≈ 10.3 µM).

And the MIC ([9]; Water pre-incubation)?
The MIC was over 64 µg/mL.

What about the MIC ([10]; Mouse Serum pre-incubation) of the same molecule?
Its MIC is 0.12 µg/mL (≈ 0.154 µM).

What about the MIC ([10]; Water pre-incubation) of the same molecule?
The MIC was 0.25 µg/mL (≈ 0.321 µM).

What about the MIC ([11]; Mouse Serum pre-incubation) of the same molecule?
Its MIC is 0.5 µg/mL (≈ 0.641 µM).

What about the MIC ([11]; Water pre-incubation) of the same molecule?
Its MIC is 2 µg/mL (≈ 2.56 µM).

What about the MIC ([12]; Mouse Serum pre-incubation) of the same molecule?
The MIC was 0.25 µg/mL (≈ 0.321 µM).

What about the MIC ([12]; Water pre-incubation) of the same molecule?
Its MIC is 0.25 µg/mL (≈ 0.321 µM).

And the ED50 [13, 22]?
The ED50 was 20.1 mg/kg.

What about the ED50 [13, 23] of the same molecule?
The ED50 was 0.87 mg/kg.

And the MIC ([14]; Mouse Serum pre-incubation)?
Its MIC is 0.5 µg/mL (≈ 0.641 µM).

And the MIC ([14]; Water pre-incubation)?
Its MIC is 1 µg/mL (≈ 1.28 µM).

What about the MIC ([15]; Mouse Serum pre-incubation) of the same molecule?
Its MIC is 1 µg/mL (≈ 1.28 µM).

And the MIC ([15]; Water pre-incubation)?
Its MIC is 2 µg/mL (≈ 2.56 µM).

What about the MIC ([16]; Mouse Serum pre-incubation) of the same molecule?
Its MIC is 0.5 µg/mL (≈ 0.641 µM).

What about the MIC ([16]; Water pre-incubation) of the same molecule?
Its MIC is 2 µg/mL (≈ 2.56 µM).

And the MIC ([17]; Mouse Serum pre-incubation)?
Its MIC is 1 µg/mL (≈ 1.28 µM).

What about the MIC ([17]; Water pre-incubation) of the same molecule?
Its MIC is 4 µg/mL (≈ 5.13 µM).

What about the MIC ([18]; Mouse Serum pre-incubation) of the same molecule?
The MIC was 1 µg/mL (≈ 1.28 µM).

And the MIC ([18]; Water pre-incubation)?
Its MIC is 16 µg/mL (≈ 20.5 µM).

And the MIC ([19]; Mouse Serum pre-incubation)?
The MIC was 1 µg/mL (≈ 1.28 µM).

And the MIC ([19]; Water pre-incubation)?
Its MIC is 4 µg/mL (≈ 5.13 µM).

And the MIC ([20]; Mouse Serum pre-incubation)?
Its MIC is 2 µg/mL (≈ 2.56 µM).

What about the MIC ([20]; Water pre-incubation) of the same molecule?
Its MIC is 2 µg/mL (≈ 2.56 µM).
